Measured values as given in US8859574B2 (IRM LLC, priority 2008, dated 2014).
pIC50: −log10 of the molar value.

biological target: T1, IGF-1R Ba/F3 (Homo sapiens, UniProt P08069); experiment: Ba/F3 Cell Viability Inhibition Assay (IGF-1R Ba/F3); format: cell-based, murine; conditions: Tel-TK transformed Ba/F3 cells, 48 hours, Britelite luminescence
T1 construct: fused on or other part: TEL- (or BCR-) IGF-1R in Ba/F3: the kinase part holds the site
Method in brief: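 IL-3-independent murine Ba/F3 cells transformed with a TEL/BCR-fused IGF-1R kinase were seeded at 3750 cells/well and exposed to serially diluted compound for 48 h at 37 °C. Viability was read by Britelite luminescence. IC50 is the concentration giving 50% of DMSO-control viability, from a logistic fit.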

T1 sequence (P08069 999-1274 limits assumed): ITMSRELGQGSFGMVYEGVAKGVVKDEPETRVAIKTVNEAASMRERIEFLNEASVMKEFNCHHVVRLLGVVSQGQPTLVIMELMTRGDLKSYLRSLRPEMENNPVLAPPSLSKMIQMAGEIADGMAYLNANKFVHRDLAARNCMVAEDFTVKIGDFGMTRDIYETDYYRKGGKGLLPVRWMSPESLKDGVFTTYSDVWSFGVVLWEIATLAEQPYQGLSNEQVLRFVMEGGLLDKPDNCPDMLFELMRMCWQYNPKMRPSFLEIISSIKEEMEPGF

Compound | pIC50
CNC(=O)CN1CCC[C@@H](c2cc(C)c(Nc3ncc(Cl)c(Nc4cc(C)[nH]n4)n3)cc2C)C1 (single isomer, unassigned) [Compound 208] | 8.00
Cc1cc(Nc2nc(Nc3cc(C)c(C4CCN(C5CCNC5)CC4)cc3F)ncc2Cl)n[nH]1 (centres unmarked) [Compound 299, 5-chloro-N2-(2-fluoro-5-methyl-4-(1-(pyrrolidin-3-yl)piperidin-4-yl)phenyl)-N4-(5-methyl-1H-pyrazol-3-yl)pyrimidine-2,4-diamine] | 7.00
Cc1cc(Nc2nc(Nc3cc(C)c(C4CCN(CCO)CC4)cc3F)ncc2Cl)n[nH]1 [Compound 22, 2-(4-(4-(5-chloro-4-(5-methyl-1H-pyrazol-3-ylamino)pyrimidin-2-ylamino)-5-fluoro-2-methylphenyl)piperidin-1-yl)ethanol] | 7.23
Cc1cc(Nc2nc(Nc3cc(C)c(C4CCN(C(=O)C(C)(C)N)CC4)cc3C)ncc2Cl)n[nH]1 [Compound 89, 2-amino-1-(4-(4-(5-chloro-4-(5-methyl-1H-pyrazol-3-ylamino)pyrimidin-2-ylamino)-2,5-dimethylphenyl)piperidin-1-yl)-2-methylpropan-1-one] | 7.64
Cc1cc(Nc2nc(Nc3cc(C)c(C4CCN(C(=O)[C@@H]5CC(O)CN5C)CC4)cc3F)ncc2Cl)n[nH]1 (stereo partly drawn) [Compound 128, (4-(4-(5-chloro-4-(5-methyl-1H-pyrazol-3-ylamino)pyrimidin-2-ylamino)-5-fluoro-2-methylphenyl)piperidin-1-yl)((2S)-4-hydroxy-1-methylpyrrolidin-2-yl)methanone] | 6.76
Cc1cc(Nc2ncc(Cl)c(NC3CCCCNC3=O)n2)c(F)cc1C1CCN(C)CC1 (centres unmarked) [Compound 9, 3-(5-chloro-2-(2-fluoro-5-methyl-4-(1-methylpiperidin-4-yl)phenylamino)pyrimidin-4-ylamino)azepan-2-one] | 7.06
Cc1cc(Nc2nc(Nc3cc(C)c(C4CCN([C@@H](C)C(N)=O)CC4)cc3C)ncc2Cl)n[nH]1 [Compound 166, (S)-2-(4-(4-(5-chloro-4-(5-methyl-1H-pyrazol-3-ylamino)pyrimidin-2-ylamino)-2,5-dimethylphenyl)piperidin-1-yl)propanamide] | 8.15
Cc1cc(Nc2nc(Nc3cc(C)c(C4CCN(S(=O)(=O)CCCN5CCC5)CC4)cc3C)ncc2Cl)n[nH]1 [Compound 195, N2-(4-(1-(3-(azetidin-1-yl)propylsulfonyl)piperidin-4-yl)-2,5-dimethylphenyl)-5-chloro-N4-(5-methyl-1H-pyrazol-3-yl)pyrimidine-2,4-diamine] | 7.57
Cc1cc(C2CCN(C(=O)CN(C)C)CC2)c(C)cc1Nc1ncc(Cl)c(Nc2cc(C(F)(F)F)[nH]n2)n1 [Compound 223, 1-(4-(4-(5-chloro-4-(5-(trifluoromethyl)-1H-pyrazol-3-ylamino)pyrimidin-2-ylamino)-2,5-dimethylphenyl)piperidin-1-yl)-2-(dimethylamino)ethanone] | 7.44
CNC(=O)CN1CCC(c2cc(F)c(Nc3ncc(Cl)c(Nc4cc(C)[nH]n4)n3)cc2C)CC1 [Compound 42, 2-(4-(4-(5-chloro-4-(5-methyl-1H-pyrazol-3-ylamino)pyrimidin-2-ylamino)-5-fluoro-2-methylphenyl)piperidin-1-yl)-N-methylacetamide] | 7.72
CCN1CCC(c2cc(C)c(Nc3ncc(Cl)c(Nc4cc(C5CC5)[nH]n4)n3)cc2C)CC1 [Compound 205, 5-chloro-N4-(5-cyclopropyl-1H-pyrazol-3-yl)-N2-(4-(1-ethylpiperidin-4-yl)-2,5-dimethylphenyl)pyrimidine-2,4-diamine] | 7.72
Cc1cc(Nc2nc(Nc3cc(C)c(C4CCN(C5COC5)CC4)cc3F)ncc2Cl)n[nH]1 [Compound 306, 5-chloro-N2-(2-fluoro-5-methyl-4-(1-(oxetan-3-yl)piperidin-4-yl)phenyl)-N4-(5-methyl-1H-pyrazol-3-yl)pyrimidine-2,4-diamine] | 7.82
CC(=O)NCC(=O)N1CCC(c2cc(F)c(Nc3ncc(Cl)c(Nc4cc(C)[nH]n4)n3)cc2C)CC1 [Compound 107, N-(2-(4-(4-(5-chloro-4-(5-methyl-1H-pyrazol-3-ylamino)pyrimidin-2-ylamino)-5-fluoro-2-methylphenyl)piperidin-1-yl)-2-oxoethyl)acetamide] | 7.24
Cc1cc(Nc2nc(Nc3cc(C)c(C4CCN(C(=O)[C@]5(C)CCCN5)CC4)cc3F)ncc2Cl)n[nH]1 [Compound 138, (S)-(4-(4-(5-chloro-4-(5-methyl-1H-pyrazol-3-ylamino)pyrimidin-2-ylamino)-5-fluoro-2-methylphenyl)piperidin-1-yl)(2-methylpyrrolidin-2-yl)methanone] | 7.04
Cc1cc(Nc2nc(Nc3cc(C)c(C4CCN(C(=O)C5CNC5=O)CC4)cc3F)ncc2Cl)n[nH]1 (centres unmarked) [Compound 119, 3-(4-(4-(5-chloro-4-(5-methyl-1H-pyrazol-3-ylamino)pyrimidin-2-ylamino)-5-fluoro-2-methylphenyl)piperidine-1-carbonyl)azetidin-2-one] | 5.52
Cc1cc(Nc2nc(Nc3cc(C)c(C4CCCCN4CC(N)=O)cc3C)ncc2Cl)n[nH]1 (centres unmarked) [Compound 181, 2-(2-(4-(5-Chloro-4-(5-methyl-1H-pyrazol-3-ylamino)pyrimidin-2-ylamino)-2,5-dimethylphenyl)piperidin-1-yl)acetamide] | 7.62
Cc1cc(Nc2nc(Nc3cc(C(F)(F)F)c(C4CCN(C)CC4)cc3C)ncc2Cl)n[nH]1 [Compound 218, 5-chloro-N4-(5-methyl-1H-pyrazol-3-yl)-N2-(2-methyl-4-(1-methylpiperidin-4-yl)-5-(trifluoromethyl)phenyl)pyrimidine-2,4-diamine] | 7.59
Cc1cc(Nc2nc(Nc3cc(C)c([C@H]4CCN[C@@H](C)C4)cc3F)ncc2Cl)n[nH]1 (relative stereo) [Compound 280, 5-chloro-N2-(2-fluoro-5-methyl-4-((cis)-2-methylpiperidin-4-yl)phenyl)-N4-(5-methyl-1H-pyrazol-3-yl)pyrimidine-2,4-diamine] | 6.79
Cc1cc(Nc2nc(Nc3cc(C)c(C4CCS(=O)(=O)C4)cc3C)ncc2Cl)n[nH]1 (centres unmarked) [Compound 154, 5-Chloro-N^2-[4-(1,1-dioxo-tetrahydro-1λ^6-thiophen-3-yl)-2,5-dimethyl-phenyl]-N^4-(5-methyl-1H-pyrazol-3-yl)-pyrimidine-2,4-diamine] | 7.92
Cc1cc(Nc2nc(Nc3cc(C)c(C4CCN(C(=O)CN5C(C)CCCC5C)CC4)cc3C)ncc2Cl)n[nH]1 (centres unmarked) [Compound 103, 1-(4-(4-(5-chloro-4-(5-methyl-1H-pyrazol-3-ylamino)pyrimidin-2-ylamino)-2,5-dimethylphenyl)piperidin-1-yl)-2-(2,6-dimethylpiperidin-1-yl)ethanone] | 8.05
Cc1cc(Nc2nc(Nc3cc(Cl)c(C4CCN(C)CC4)cc3C)ncc2Cl)n[nH]1 [Compound 7, 5-chloro-N2-(5-chloro-2-methyl-4-(1-methylpiperidin-4-yl)phenyl)-N4-(5-methyl-1H-pyrazol-3-yl)pyrimidine-2,4-diamine] | 7.82
Cc1cc(Nc2nc(Nc3cc(C)c(C4CCN(C(=O)CN5C(C)(C)CCCC5(C)C)CC4)cc3C)ncc2Cl)n[nH]1 [Compound 104, 1-(4-(4-(5-chloro-4-(5-methyl-1H-pyrazol-3-ylamino)pyrimidin-2-ylamino)-2,5-dimethylphenyl)piperidin-1-yl)-2-(2,2,6,6-tetramethylpiperidin-1-yl)ethanone] | 7.74
Cc1cc(Nc2ncc(Cl)c(Nc3cc(C(F)(F)F)[nH]n3)n2)c(F)cc1C1CCN(CC(N)=O)CC1 [Compound 173, 2-(4-(4-(5-chloro-4-(5-(trifluoromethyl)-1H-pyrazol-3-ylamino)pyrimidin-2-ylamino)-5-fluoro-2-methylphenyl)piperidin-1-yl)acetamide] | 7.31
Cc1cc(Nc2nc(Nc3cc(C)c(C4CCN(C(=O)c5ocnc5C)CC4)cc3F)ncc2Cl)n[nH]1 [Compound 136, (4-(4-(5-chloro-4-(5-methyl-1H-pyrazol-3-ylamino)pyrimidin-2-ylamino)-5-fluoro-2-methylphenyl)piperidin-1-yl)(4-methyloxazol-5-yl)methanone] | 7.46
Cc1cc(Nc2nc(Nc3cc(C)c(C4CCN(C5CCOCC5)CC4)cc3F)ncc2Cl)n[nH]1 [Compound 209, 5-chloro-N^2-(2-fluoro-5-methyl-4-(1-(tetrahydro-2H-pyran-4-yl)piperidin-4-yl)phenyl)-N^4-(5-methyl-1H-pyrazol-3-yl)pyrimidine-2,4-diamine] | 7.57
Cc1cc(Nc2nc(Nc3cc(C)c(C4CCN(Cc5noc(C(C)C)n5)CC4)cc3C)ncc2Cl)n[nH]1 [Compound 305, 5-chloro-N2-(4-(1-((5-isopropyl-1,2,4-oxadiazol-3-yl)methyl)piperidin-4-yl)-2,5-dimethylphenyl)-N4-(5-methyl-1H-pyrazol-3-yl)pyrimidine-2,4-diamine] | 7.60
CNC(=O)[C@H](C)N1CCC(c2cc(F)c(Nc3ncc(Cl)c(Nc4cc(C)[nH]n4)n3)cc2C)CC1 [Compound 164, (S)-2-(4-(4-(5-chloro-4-(5-methyl-1H-pyrazol-3-ylamino)pyrimidin-2-ylamino)-5-fluoro-2-methylphenyl)piperidin-1-yl)-N-methylpropanamide] | 7.48
Cc1cc(Nc2nc(Nc3cc(C)c(C4CCNCC4)cc3C)ncc2Cl)n[nH]1 [Compound 256, 5-chloro-N2-(2,5-dimethyl-4-(piperidin-4-yl)phenyl)-N4-(5-methyl-1H-pyrazol-3-yl)pyrimidine-2,4-diamine] | 7.36
Cc1cc(Nc2nc(Nc3cc(C)c(C4CCN([C@H](C)C(N)=O)CC4)cc3F)ncc2Cl)n[nH]1 [Compound 165, (R)-2-(4-(4-(5-chloro-4-(5-methyl-1H-pyrazol-3-ylamino)pyrimidin-2-ylamino)-5-fluoro-2-methylphenyl)piperidin-1-yl)propanamide] | 7.42
